From PubChem BioAssay AID248 (DTP/NCI, 2004)
Several values for one entry are separate records, joined by “and”; a condition that tells them apart may be missing. Identical values can stand only once. Toxic doses and inconclusive results are not listed. Cut-off read from the data, not from the text of the source: active = T/C of 150% or more; inactive = T/C below 125%.

Test system: L1210 leukemia ip in BDF1 mice, survival T/C
Test: NCI In Vivo Anticancer Drug Screen. Data for tumor model L1210 Leukemia (intraperitoneal) in B6D2F1 (BDF1) mice
Conditions: endpoint: mean survival time, higher = longer survival
In short: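 Survival endpoint. Drug-treated group vs vehicle group, expressed as T divided by C. Tumor passaged by transplantation.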

[1] = dose: 100.0 mg/kg/injection, schedule: Q01DX009 (ip), vehicle: saline
[2] = dose: 200.0 mg/kg/injection, schedule: Q01DX009 (ip), vehicle: saline
[3] = dose: 50.0 mg/kg/injection, schedule: Q01DX001 (ip), vehicle: saline
[4] = dose: 100.0 mg/kg/injection, schedule: Q01DX001 (ip), vehicle: saline
[5] = dose: 200.0 mg/kg/injection, schedule: Q01DX001 (ip), vehicle: saline
[6] = dose: 400.0 mg/kg/injection, schedule: Q01DX001 (ip), vehicle: saline
[7] = dose: 100.0 mg/kg/injection, schedule: Q01DX001 (ip), vehicle: other
[8] = dose: 200.0 mg/kg/injection, schedule: Q01DX001 (ip), vehicle: other
[9] = dose: 400.0 mg/kg/injection, schedule: Q01DX001 (ip), vehicle: other

Measured: T/C

O=C(O)c1ccccc1-c1ccccc1C(=O)Nc1ccc2c(c1)Cc1cc(F)ccc1-2
inactive: dose: 75.0 mg/kg/injection, schedule: Q01DX001 (ip), vehicle: carboxymethylcellulose (CMC) 91 % of control | dose: 150.0 mg/kg/injection, schedule: Q01DX001 (ip), vehicle: carboxymethylcellulose (CMC) 98 % of control

Cc1ccc(C(C)C)cc1NC(=O)c1c(Cl)c(Cl)c(Cl)c(Cl)c1C(=O)O
inactive: dose: 25.0 mg/kg/injection, schedule: Q01DX009 (ip), vehicle: Klucel (hydroxypropylcellulose) (HPC) 108 % of control | dose: 50.0 mg/kg/injection, schedule: Q01DX009 (ip), vehicle: Klucel (hydroxypropylcellulose) (HPC) 91 % of control | dose: 100.0 mg/kg/injection, schedule: Q01DX009 (ip), vehicle: Klucel (hydroxypropylcellulose) (HPC) 103 % of control and 90 % of control

CCOC(=O)C1CCCCCC1=O (configuration not stated)
inactive: dose: 50.0 mg/kg/injection, schedule: Q01DX009 (ip), vehicle: saline 110 % of control | [1] 98 % of control | dose: 100.0 mg/kg/injection, schedule: Q04DX003 (ip), vehicle: alcohol 102 % of control | [2] 95 % of control | dose: 200.0 mg/kg/injection, schedule: Q04DX003 (ip), vehicle: alcohol 103 % of control | dose: 400.0 mg/kg/injection, schedule: Q04DX003 (ip), vehicle: alcohol 100 % of control

C[AsH](C)CC[AsH](C)C.C[AsH](C)CC[AsH](C)C.C[AsH](C)CC[AsH](C)C.[Ni]
inactive: dose: 25.0 mg/kg/injection, schedule: Q04DX002 (ip), vehicle: saline 103 % of control | dose: 50.0 mg/kg/injection, schedule: Q04DX002 (ip), vehicle: saline 109 % of control

N#CCC(O)(c1ccccc1)c1ccccc1
inactive: [3] 102 % of control | [4] 98 % of control | [5] 98 % of control | [6] 104 % of control

COc1ccccc1C(=O)P(=O)(OC)OC
inactive: [4] 104 % of control | [5] 93 % of control | [6] 95 % of control

CCOC(=O)CCCCCCCCCC[N+](CC)(CC)CC(=O)c1ccc(NC(C)=O)cc1
inactive: dose: 75.0 mg/kg/injection, schedule: Q01DX001 (ip), vehicle: other 96 % of control | dose: 150.0 mg/kg/injection, schedule: Q01DX001 (ip), vehicle: other 101 % of control

COC(=O)/C=C/C(=O)NC(N)=O
inactive: dose: 6.25 mg/kg/injection, schedule: Q01DX009 (ip), vehicle: saline 93 % of control | dose: 12.5 mg/kg/injection, schedule: Q01DX009 (ip), vehicle: saline 98 % of control | dose: 25.0 mg/kg/injection, schedule: Q01DX009 (ip), vehicle: saline 101 % of control

CC(C)COC(=O)Nc1cccc(O)c1
inactive: dose: 100.0 mg/kg/injection, schedule: Q01DX009 (ip), vehicle: saline with Tween-80 91 % of control | dose: 200.0 mg/kg/injection, schedule: Q01DX009 (ip), vehicle: saline with Tween-80 90 % of control | dose: 400.0 mg/kg/injection, schedule: Q01DX009 (ip), vehicle: saline with Tween-80 94 % of control

BrCc1cccc(C[P+](c2ccccc2)(c2ccccc2)c2ccccc2)c1
inactive: dose: 5.0 mg/kg/injection, schedule: Q01DX001 (ip), vehicle: saline 112 % of control | dose: 10.0 mg/kg/injection, schedule: Q01DX001 (ip), vehicle: saline 114 % of control | dose: 20.0 mg/kg/injection, schedule: Q01DX001 (ip), vehicle: saline 114 % of control | [3] 110 % of control

CCSC(=O)C1OC(n2cnc3c(N)ncnc32)C2OC(C)(C)OC12 (configuration not stated)
inactive: dose: 100.0 mg/kg/injection, schedule: Q01DX005 (ip), vehicle: saline 100 % of control | dose: 200.0 mg/kg/injection, schedule: Q01DX005 (ip), vehicle: saline 102 % of control

Cc1ccc2nc(CCl)[nH]c2c1
inactive: [3] 119 % of control | [4] 113 % of control | [5] 107 % of control

N#Cc1nccnc1C#N
inactive: dose: 25.0 mg/kg/injection, schedule: Q04DX002 (ip), vehicle: DMSO 96 % of control | dose: 50.0 mg/kg/injection, schedule: Q04DX002 (ip), vehicle: DMSO 100 % of control | dose: 100.0 mg/kg/injection, schedule: Q04DX002 (ip), vehicle: DMSO 100 % of control

O=C(O)c1ccccc1C(=O)NCc1ccco1
inactive: dose: 50.0 mg/kg/injection, schedule: Q01DX001 (ip), vehicle: other 94 % of control | [7] 105 % of control | [8] 105 % of control | [9] 100 % of control

COc1ccc(Nc2cc(N)nc(N)n2)c(=S)[nH]1
inactive: dose: 100.0 mg/kg/injection, schedule: Q04DX003 (ip), vehicle: saline 97 % of control | dose: 200.0 mg/kg/injection, schedule: Q04DX003 (ip), vehicle: saline 97 % of control | dose: 400.0 mg/kg/injection, schedule: Q04DX003 (ip), vehicle: saline 93 % of control

O/N=C(/Cc1ccccc1)CC(O)(C(F)(F)F)C(F)(F)F
inactive: [4] 110 % of control | [1] 95 % of control | [5] 95 % of control | [2] 102 % of control | [6] 89 % of control | dose: 400.0 mg/kg/injection, schedule: Q01DX009 (ip), vehicle: saline 95 % of control

CSc1ccc(OC(=O)Nc2cc([N+](=O)[O-])ccc2F)cc1C
inactive: dose: 100.0 mg/kg/injection, schedule: Q04DX002 (ip), vehicle: saline with Tween-80 89 % of control | dose: 100.0 mg/kg/injection, schedule: Q04DX002 (ip), vehicle: saline 92 % of control | dose: 200.0 mg/kg/injection, schedule: Q04DX002 (ip), vehicle: saline with Tween-80 93 % of control | dose: 200.0 mg/kg/injection, schedule: Q04DX002 (ip), vehicle: saline 110 % of control | dose: 400.0 mg/kg/injection, schedule: Q04DX002 (ip), vehicle: saline with Tween-80 91 % of control | dose: 800.0 mg/kg/injection, schedule: Q04DX002 (ip), vehicle: saline with Tween-80 93 % of control

Cn1c2c(sc1=O)CCC2
inactive: dose: 50.0 mg/kg/injection, schedule: Q01DX Z (ip), vehicle: methylcellulose (MC) 102 % of control and 105 % of control | [7] 103 % of control | dose: 100.0 mg/kg/injection, schedule: Q01DX Z (ip), vehicle: methylcellulose (MC) 111 % of control | dose: 100.0 mg/kg/injection, schedule: Q04DX003 (ip), vehicle: Klucel (hydroxypropylcellulose) (HPC) 99 % of control | [8] 111 % of control | dose: 200.0 mg/kg/injection, schedule: Q01DX Z (ip), vehicle: methylcellulose (MC) 93 % of control | dose: 200.0 mg/kg/injection, schedule: Q04DX003 (ip), vehicle: Klucel (hydroxypropylcellulose) (HPC) 100 % of control | [9] 105 % of control
